Experimental data reported in patent US20110003878A1, “NOVEL DERIVATIVES OF PHTHALIMIDE AS HISTONE DEACETYLASE INHIBITORS” (UNIVERSIDAD DE GRANADA, priority 2006, published 2011).
pIC50: −log10 of the molar value.

System: HDAC (HeLa nuclear extract, rich in HDAC activity)
Assay: HDAC AK-501 colorimetric inhibition kit (Color de Lys substrate, HeLa nuclear extract)
Type: biochemical, human
Conditions: Color de Lys substrate 0.2 mM final, 20 minutes at 37° C., reading at 405 nm, 5 concentrations (0.1-1.0 μM)
Protocol: The process of the assay was carried out in two steps. In the first step, the Color de Lys® substrate, containing an acetylated lysine group, was incubated with a sample of HeLa (human cervical cancer cell line) nuclear extract, rich in HDAC activity. […] There is a linear correlation between the absorption and the deacetylation of lysine within instrumental limits. The operating procedure was the following: • 1. […] The Hela extract was added, except to the enzyme-free control. • 3. The plate and the Color de Lys® substrate were thermostatted at 37° C. • 4. The reactions were started adding the 0.4 mM substrate (final concentration of the substrate 0.2 mM) in each well and it was stirred. • 5. A reaction time of 20 minutes at 37° C. was allowed. • 6. The Color de Lys® developer, prepared approximately 30 minutes before its use, was added (the developer was used diluted 20 times with an amount of TSA resulting in a final concentration of 1 μM in the assay). • It was allowed to react for 15 minutes at 37° C. • 7.

pIC50	Compound
6.46	O=C(CCCCCN1C(=O)c2ccc([N+](=O)[O-])cc2C1=O)NO [MTC-127, 6-(5-nitro-1,3-dioxo-isoindol-2-yl)-N-hydroxyhexanamide]
6.74	Cc1ccc2c(c1)C(=O)N(CCCCCC(=O)NO)C2=O [MTC-141, 6-(5-methyl-1,3-dioxoisoindol-2-yl)-N-hydroxyhexanamide]
